Legend:
Assay type in all cases: cell-based, human
[1] = tested on: Peripheral blood mononuclear cells (PBMC) of HIV-1 infected individuals; experiment: Ex vivo ELISPOT assay for single-cell IFN-γ release, HIV-infected individuals; details: patient HSR-028
Description: Peripheral blood mononuclear cells (PBMC) were seeded in duplicate at 2×10^5 cells/well in 96-well plates (MAIPS4510; Millipore, Bedford, Mass.) precoated with anti-IFN-γ capture monoclonal antibody (B-B1; Diaclone, Besancon, France) and stimulated with the different peptide pools at the fixed concentration of 3 μg/ml of each peptide for 18 h at 37° C. in air plus 5% CO2. Biotinylated anti-IFN-γ detection monoclonal antibody (B-G1; Diaclone) was added for 2 h, followed by the addition of streptavidin-alkaline phosphatase conjugate (Amersham Pharmacia Biotech Europe GmbH, Freiburg, Germany) for 1 h. A chromogenic substrate (nitroblue tetrazolium-BCIP [5-bromo-4-chloro-3-indolylphosphate]; Sigma, St. Louis, Mo.) was added for 10 min. The individual spots were counted by using an Automated ELISA-Spot Assay Video Analysis System, Eli-Scan with the software Eli.Analyse V4.2 (A.EL.VIS, Hannover, Germany).
The responses were empirically scored as positive if the test wells contained a mean number of spot-forming cells (SFC) higher than the mean value plus two standard deviations in negative control wells, and if the number of SFC per million PBMC in stimulated wells (subtracted of the values of negative control wells) was ≧50. PBMC in medium alone were used to establish the negative control background, that had to be not higher than 50 SFC per million of cells (10 SFC/well). […]

[2] = tested on: CD45RA+ IFN-γ− IL-2− MIP-1β+ CD8 T-cells; experiment: Polychromatic intracellular cytokine staining, detection of CD45RA+ IFN-γ− IL-2− MIP-1β+ CD8 T-cells; details: subject V4
Description: (§1) After thawing, PBMC were washed trice at room temperature in complete cell culture medium and plated in round bottom 96 wells/plates. All the incubations were carried out in round bottom 96 wells/plates to allow high throughput processing of the probes. 10^6 PBMC/well were incubated with 1.3 μg/ml of antibody to CD28 and with 1.3 μg/ml of antibody to CD49d (Becton Dickinson, Heidelberg, Germany) together with defined peptide pools. For each individual, a sample without peptides was included to calculate the background staining. Following one-hour incubation, 10 μg/ml of Brefeldin A were added to the cell suspension and the incubation carried out for additional 4 hours. Stimulated cells were then resuspended in Stain Buffer (0.2% BSA, 0.09% Na Azide in DPBS; Becton Dickinson) and incubated with the photoreactive fluorescent label ethidium monoazide (EMA; Molecular Probes, Leiden, The Netherlands) used as viability dye. After washing, cells were fixed and permeabilized using the BD Cytofix/Cytoperm™ Kit, (Becton Dickinson). Then, the following fluorochrome-conjugated antibodies were added to the cell suspension: CD3-AmCyan, CD4-PerCP, CD45RA-PECy7, CD154-FITC, IFNγ-A1700, IL2-APC and MIP1β-PE from Becton Dickinson and CD8-PacB from DAKO (Hamburg, Germany). […]
(§2) Following background subtraction, the threshold level was calculated using the 90 percentile of the negative values. […]

[3] = tested on: Nef specific CD4 and CD8 T-cells (PBMC); experiment: Intracellular cytokine staining (IFN-γ) of CD4 and CD8 T cells, Nef peptides; details: subject V4; B8 restricted
Description: as §1, with “Dickinson).” for “Dickinson). Then, the following fluorochrome-conjugated antibodies were added to the cell suspension: CD3-AmCyan, CD4-PerCP, CD45RA-PECy7, CD154-FITC, IFNγ-A1700, IL2-APC and MIP1β-PE from Becton Dickinson and CD8-PacB from DAKO (Hamburg, Germany).”
as §2
In this way, the authors could establish whether the higher number of individual responses measured with the new set of overlapping peptides was restricted to the CD8 compartment or interested also CD4 T-cell recognition.

[4] = tested on: T-cell response of HIV-1 infected individuals; experiment: Mapping of Tat- and Nef-specific T-cell responses to single VOPSD peptides in cohorts of HIV-1 infected individuals (Elite Controllers)
[5] = Controllers Upon Suspension (CUS)

EPVDPRLEPWKHPGSQPKTA [20mer homolog, 20mer homolog of VOPSD Tat peptide 1 from the standard Tat 20mer set, reference compound]
peptide concentration of maximal recognition (single peptide titration) [1]: recognized only at the highest concentration tested

FLKEKGGL
detection of CD45RA+ IFN-γ− IL-2− MIP-1β+ CD8 T-cells [2]: detected
CD8 T-cell response to the epitope [3]: strong CD8 T-cell response

KKCCFHCQVCFITKALGI [peptide 2.5]
individuals recognizing the peptide ([4]; CHI w T): 1/15
individuals recognizing the peptide [4, 5]: 1/5
individuals recognizing the peptide ([4]; Elite Controllers (EC)): 4/13
individuals recognizing the peptide ([4]; LTNP): 1/6

LEPWKHPGSQPKTACTNCY [peptide 2.2]
individuals recognizing the peptide ([4]; Elite Controllers (EC)): 5/9

MEPVDPRLEPW [VOPSD Tat peptide 1]
peptide concentration of maximal recognition (single peptide titration) [1]: 0.5 µM

QVCFITKALGISYGR [peptide 2.6]
individuals recognizing the peptide ([4]; CHI w T): 1/15
individuals recognizing the peptide ([4]; CHI w/o T): 1/13
individuals recognizing the peptide [4, 5]: 1/5
individuals recognizing the peptide ([4]; Elite Controllers (EC)): 7/13

VLEWRFDSRLAFHHVAREL [peptide 5.29]
individuals recognizing the peptide ([4]; Elite Controllers (EC)): 7/13
immunodominant response in groups other than EC ([4]; all other groups of HIV-1 infected individuals): not for any of the all the other groups of HIV-1 infected individuals

From patent US20110236409A1, “O[…] FROM VARIABLE ANTIGENS, T CELL POPULATIONS AND USES THEREOF” (Helmholtz Zentrum München - Deutsches Forschungszentrum für …, priority 2008, published 2011)
